Results as given in US10358456B2, “Platinum(II) complexes with selone ligands and method of use” (KING FAHD UNIVERSITY OF PETROLEUM AND MINERALS, priority 2017, dated 2019).

Columns and labels:
[1] = system: HeLa (cervical cancer cells); assay: MTT assay for anticancer activity (in vitro cytotoxicity), HeLa; assay type: cell-based, human; settings: for IC50: MTT, incubated 24 h with compound, read-out: IC50 ± SEM, HeLa (concentration causing 50% reduction in cell viability)
Procedure: (§1) Cell Cultures: Human Cervical cancer HeLa and Brest cancer cell lines MCF-7 were grown in Dulbecco's modified Eagle's medium (DMEM) supplemented with 10% Fetal Bovine Serum (FBS), and 1% penicillin (10,000 units), streptomycin (10 mg), in 74 cm2 flask and incubated until 80% confluences obtained in humidified environment of, 5% CO2, 95% air, 37° C.
(§2) Complexes 1-7 and cisplatin (positive control) at 0.195 μM, 0.39 μM, 0.781 μM, 1.56 μM, 3.125 μM, 6.25 μM, 12.5 μM, 25 μM, and 50 μM concentrations were prepared in DMEM. Cancer cells were seeded and maintained in quadruplicate in a 96-well tissue culture plate at 5×10^4 cells per well in 200 μl of same medium. The cancer cells were incubated 24 hours before the treatment. All compounds were dissolved in 50% DMSO. Therefore, DMSO was used as a negative control. The final DMSO concentration, in each well, was less than 0.1%. The cancer cells were treated with the synthesized compounds 1-8 along with the cisplatin and the resultant cultures were incubated for 24 h. The medium of wells was discarded and 100 μL DMEM containing MTT (3-(4,5-dimethylthiazol-2-yl)-2,5-diphenyltetrazolium bromide) (5 mg/mL) was added to the wells and incubated in a CO2 incubator at 37° C. in the dark for 4 hrs. After incubation, a purple colored formazan (artificial chromogenic dye, a product of the reduction of water insoluble tetrazolium salts e.g., MTT by dehydrogenases and reductases) in the cells is produced and appeared as dark crystals in the bottom of the wells. The medium of culture was discarded from each well carefully to avoid disruption of the monolayer. 100 μL of isopropanol was added in each well. The solution was thoroughly mixed in the wells to dissolve the formazan crystals which ultimately results into a purple solution. The absorbance of the 96-well plate was measured at 570 nm with Mithras2LB943 against reagent blank. All data presented are mean±standard deviation.
(§3) To examine the possible anticancer effect of cisplatin and the prepared complexes, two human tumor cell lines, HeLa (cervical cancer cells) and MCF7 (breast cancer cells) were used. The results of in vitro cytotoxic activity are expressed as IC50 (concentration causing 50% reduction in cell viability) and are presented in Table 5.

[2] = system: MCF7 (breast cancer cells); assay: MTT assay for anticancer activity (in vitro cytotoxicity), MCF7; assay type: cell-based, human; settings: for IC50: MTT, incubated 24 h with compound, read-out: IC50 ± SEM, MCF7 (concentration causing 50% reduction in cell viability)
Procedure: as §1, §2, §3

Compound	IC50 [1]	IC50 [2]	antiproliferative potency in HeLa cells, compared among the complexes and with cisplatin ([1]; in words)	activity against MCF7 cells, compared among the complexes and with cisplatin ([2]; in words)
CC(C)N1CCNC1=[Se][Pt]([Cl])([Cl])[Se]=C1NCCN1C(C)C [(5), Pt(i-PrImSe)2Cl2]	14 ± 0.16 µM	8.3 ± 0.06 µM		
[Cl][Pt]([Cl])([Se]=C1NCCCN1)[Se]=C1NCCCN1 [(6), Pt(DiazSe)2Cl2]	11.3 ± 0.2 µM	12.27 ± 0.01 µM	strongest antiproliferative potency	
CCN1CCNC1=[Se][Pt]([Cl])([Cl])[Se]=C1NCCN1CC [(3), Pt(EtImSe)2Cl2]	17.73 ± 0.14 µM	8.59 ± 0.07 µM		
N.N.[Cl][Pt][Cl] [Cisplatin, cisplatin, reference compound]	21.4 ± 0.73 µM	8.98 ± 0.07 µM		
NC(N)=[Se][Pt]([Cl])([Cl])[Se]=C(N)N [(1), Pt(SeU)2Cl2]	19.78 ± 0.13 µM	11.11 ± 0.05 µM		
[Cl][Pt]([Cl])([Se]=C1NCCCCN1)[Se]=C1NCCCCN1 [(7), Pt(DiapSe)2Cl2]	11.5 ± 0.22 µM	16.68 ± 0.02 µM		
CCCN1CCNC1=[Se][Pt]([Cl])([Cl])[Se]=C1NCCN1CCC [(4), Pt(PrImSe)2Cl2]	12.9 ± 0.16 µM	18.64 ± 0.03 µM		
[Cl][Pt]([Cl])(=[Se]=C1NCCN1)=[Se]=C1NCCN1 [(2), Pt(ImSe)2Cl2]				most active
